Laboratory results taken from patent US20060069132A1, “Azolecarboxamide herbicides” (priority 2004, published 2006).

Assays:
barnyardgrass [1] = experiment: Test A pre-/postemergence herbicide test; assay type: in vivo, Echinochloa crus-galli
Method in brief: (§1)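 Pre: seeded sandy loam, directed soil spray, compound in non-phytotoxic solvent + surfactant. Post: 1–2-leaf plants (2–10 cm), sprayed to runoff. Greenhouse ~10 d; visual injury vs untreated, 0–100 scale.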

large crabgrass [2] = experiment: Test A pre-/postemergence herbicide test; assay type: in vivo, Digitaria sanguinalis
Method in brief: as §1

giant foxtail [3] = experiment: Test A pre-/postemergence herbicide test; assay type: in vivo, Setaria faberi
Method in brief: as §1

morningglory [4] = experiment: Test A pre-/postemergence herbicide test; assay type: in vivo, Ipomoea spp.
Method in brief: as §1

redroot pigweed = experiment: Test A pre-/postemergence herbicide test; assay type: in vivo, Amaranthus retroflexus
Method in brief: as §1

velvetleaf [5] = experiment: Test A pre-/postemergence herbicide test; assay type: in vivo, Abutilon theophrasti
Method in brief: as §1

barnyardgrass [6] = experiment: Test B pre-/postemergence herbicide test; assay type: in vivo, Echinochloa crus-galli; settings: for Plant response rating, Barnyardgrass: preemergence; for Barnyardgrass plant response rating: postemergence, visual rating, scale 0 (no effect) to 100 (complete control)
Method in brief: (§2)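 Evaluation is visual, comparing treated with control plants on a scale where 0 means no effect and 100 means full control. Treatments were preemergence, or postemergence on seedlings 2–18 cm tall, and held 13–15 days in the greenhouse.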

Surinam grass = experiment: Test B pre-/postemergence herbicide test; assay type: in vivo, Urochloa decumbens; settings: for Plant response rating, Surinam Grass: preemergence; for Surinam Grass plant response rating: postemergence, visual rating, scale 0 (no effect) to 100 (complete control)
Method in brief: (§3)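 Test chemicals in a non-phytotoxic solvent mixture with surfactant were applied preemergence to seeded species and postemergence to plants 2-18 cm tall (1- to 4-leaf stage); rice and barnyardgrass were also tested in a flooded paddy at the 2-leaf stage. Visual rating versus controls after 13-15 days in greenhouse, scale 0 (no effect) to 100 (complete control).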

cocklebur = experiment: Test B pre-/postemergence herbicide test; assay type: in vivo, Xanthium strumarium; settings: for Plant response rating, Cocklebur: preemergence; for Cocklebur plant response rating: postemergence, visual rating, scale 0 (no effect) to 100 (complete control)
Method in brief: as §2

corn = experiment: Test B pre-/postemergence herbicide test; assay type: in vivo, Zea mays; settings: for Plant response rating, Corn: preemergence; for Corn plant response rating: postemergence, visual rating, scale 0 (no effect) to 100 (complete control)
Method in brief: as §3

large crabgrass [7] = experiment: Test B pre-/postemergence herbicide test; assay type: in vivo, Digitaria sanguinalis; settings: for Plant response rating, Crabgrass, Large: preemergence; for Crabgrass, Large plant response rating: postemergence, visual rating, scale 0 (no effect) to 100 (complete control)
Method in brief: as §3

giant foxtail [8] = experiment: Test B pre-/postemergence herbicide test; assay type: in vivo, Setaria faberi; settings: for Plant response rating, Foxtail, Giant: preemergence; for Foxtail, Giant plant response rating: postemergence, visual rating, scale 0 (no effect) to 100 (complete control)
Method in brief: as §3

lambsquarters = experiment: Test B pre-/postemergence herbicide test; assay type: in vivo, Chenopodium album; settings: for Plant response rating, Lambsquarters: preemergence; for Lambsquarters plant response rating: postemergence, visual rating, scale 0 (no effect) to 100 (complete control)
Method in brief: as §3

morningglory [9] = experiment: Test B pre-/postemergence herbicide test; assay type: in vivo, Ipomoea coccinea; settings: for Plant response rating, Morningglory: preemergence; for Morningglory plant response rating: postemergence, visual rating, scale 0 (no effect) to 100 (complete control)
Method in brief: as §2

pigweed = experiment: Test B pre-/postemergence herbicide test; assay type: in vivo, Amaranthus retroflexus; settings: for Plant response rating, Pigweed: preemergence; for Pigweed plant response rating: postemergence, visual rating, scale 0 (no effect) to 100 (complete control)
Method in brief: as §3

rice [10] = experiment: Test B pre-/postemergence herbicide test; assay type: in vivo, Oryza sativa; settings: preemergence
Method in brief: as §3

velvetleaf [11] = experiment: Test B pre-/postemergence herbicide test; assay type: in vivo, Abutilon theophrasti; settings: for Plant response rating, Velvetleaf: preemergence; for Velvetleaf plant response rating: postemergence, visual rating, scale 0 (no effect) to 100 (complete control)
Method in brief: as §3

blackgrass = experiment: Test B postemergence herbicide test; assay type: in vivo, Alopecurus myosuroides; settings: postemergence, visual rating, scale 0 (no effect) to 100 (complete control)
Method in brief: (§4)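 Each value is a visual 0–100 response rating taken against controls 13 to 15 days after treatment in the greenhouse. Plants received formulated chemical postemergence at the 1- to 4-leaf stage or, in flooded paddy, at the 2-leaf stage.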

wheat = experiment: Test B postemergence herbicide test; assay type: in vivo, Triticum aestivum; parameters: key to Wheat plant response rating: 0 = no effect, 100 = complete control; settings: postemergence, 500 g ai/ha; visual rating, scale 0 (no effect) to 100 (complete control)
Method in brief: as §4

wild oat = experiment: Test B postemergence herbicide test; assay type: in vivo, Avena fatua; settings: postemergence, visual rating, scale 0 (no effect) to 100 (complete control)
Method in brief: as §4

rice [12] = experiment: Test B flooded paddy test; assay type: in vivo, Oryza sativa; settings: 1000 g ai/ha, visual rating, scale 0 to 100 (0 no effect, 100 complete control), 13 to 15 days
Method in brief: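 Paddy species grown to the 2-leaf stage under flooding; blackgrass sprayed postemergence at 2–18 cm (1- to 4-leaf stage). Plants kept in a greenhouse for 13 to 15 days, then visually rated against controls on 0 (no effect) to 100 (complete control).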

[13] = tested on: small flower umbrella sedge; experiment: Test B flooded paddy test; assay type: in vivo, Cyperus difformis; settings: 1000 g ai/ha, visual rating, scale 0 to 100 (0 no effect, 100 complete control), 13 to 15 days
Method in brief: as §4

ducksalad = experiment: Test B flooded paddy test; assay type: in vivo, Heteranthera limosa; settings: 1000 g ai/ha, visual rating, scale 0 to 100 (0 no effect, 100 complete control), 13 to 15 days
Method in brief: as §4

barnyardgrass [14] = experiment: Test B flooded paddy test; assay type: in vivo, Echinochloa crus-galli; settings: 1000 g ai/ha, visual rating, scale 0 to 100 (0 no effect, 100 complete control), 13 to 15 days
Method in brief: as §4

[15] = Postemergence, 500 g ai/ha, 0 to 100 scale, 0 no effect, 100 complete control
[16] = Postemergence, 2000 g ai/ha, 0 to 100 scale, 0 no effect, 100 complete control
[17] = Preemergence, 500 g ai/ha, visual rating, 0 to 100 scale (0 no effect, 100 complete control)
[18] = Preemergence, 2000 g ai/ha, visual rating, 0 to 100 scale (0 no effect, 100 complete control)
[19] = preemergence, 500 g ai/ha, visual injury, 0 to 100 scale (0 no effect, 100 complete control)
[20] = 500 g ai/ha, visual rating 0-100, 0 no effect, 100 complete control
[21] = 125 g ai/ha, 0 to 100 scale, 0 is no effect, 100 is complete control

With CCn1nc(C(C)(C)C)cc1C(=O)Nc1nc(OC)cc(OC)n1 [Compound 166] the “Barnyardgrass plant response rating” value (barnyardgrass [1]; [15]) was 0, the “Plant response rating, Barnyardgrass” value (barnyardgrass [1]; [16]) was 10 and the “Barnyardgrass plant response rating” value (barnyardgrass [1]; [17]) was 0. The “Barnyardgrass plant response rating” value (barnyardgrass [1]; [18]) was 10, the “Crabgrass, Large plant response rating” value (large crabgrass [2]; [15]) was 0 and the “Plant response rating, Crabgrass, Large” value (large crabgrass [2]; [16]) was 0. For the same compound, the “Crabgrass, Large plant response rating” value (large crabgrass [2]; [17]) was 0, the “Crabgrass, Large plant response rating” value (large crabgrass [2]; [18]) was 30 and the “Foxtail, Giant plant response rating” value (giant foxtail [3]; [15]) was 0. The “Plant response rating, Foxtail, Giant” value (giant foxtail [3]; [16]) was 20, the “Foxtail, Giant plant response rating” value (giant foxtail [3]; [17]) was 0 and the “Foxtail, Giant plant response rating” value (giant foxtail [3]; [18]) was 10. For the same compound, the “Morningglory plant response rating” value (morningglory [4]; [15]) was 0, the “Plant response rating, Morningglory” value (morningglory [4]; [16]) was 10 and the “Morningglory plant response rating” value (morningglory [4]; [17]) was 0. The “Morningglory plant response rating” value (morningglory [4]; [18]) was 5, the “Pigweed plant response rating” value (redroot pigweed; [15]) was 20 and the “Plant response rating, Pigweed” value (redroot pigweed; [16]) was 25. The “Pigweed plant response rating” value (redroot pigweed; [18]) was 10, the “Pigweed plant response rating” value (redroot pigweed; [19]) was 0 and the “Velvetleaf plant response rating” value (velvetleaf [5]; [15]) was 20. The “Plant response rating, Velvetleaf” value (velvetleaf [5]; [16]) was 30, the “Velvetleaf plant response rating” value (velvetleaf [5]; [18]) was 5 and the “Velvetleaf plant response rating” value (velvetleaf [5]; [19]) was 0. For the same compound, the “Plant response rating, Barnyardgrass” value (barnyardgrass [6]; [20]) was 0, the “Barnyardgrass plant response rating” value (barnyardgrass [6]; 125 g ai/ha) was 0 and the “Barnyardgrass plant response rating” value (barnyardgrass [6]; 500 g ai/ha) was 0. The “Plant response rating, Barnyardgrass” value (barnyardgrass [6]; [21]) was 0, the “Plant response rating, Surinam Grass” value (Surinam grass; [20]) was 0 and the “Surinam Grass plant response rating” value (Surinam grass; 125 g ai/ha) was 0. The “Surinam Grass plant response rating” value (Surinam grass; 500 g ai/ha) was 0, the “Plant response rating, Surinam Grass” value (Surinam grass; [21]) was 0 and the “Plant response rating, Cocklebur” value (cocklebur; [20]) was 0. The “Cocklebur plant response rating” value (cocklebur; 125 g ai/ha) was 0, the “Cocklebur plant response rating” value (cocklebur; 500 g ai/ha) was 0 and the “Plant response rating, Cocklebur” value (cocklebur; [21]) was 0. For the same compound, the “Plant response rating, Corn” value (corn; [20]) was 0, the “Corn plant response rating” value (corn; 125 g ai/ha) was 0 and the “Corn plant response rating” value (corn; 500 g ai/ha) was 0. For the same compound, the “Plant response rating, Corn” value (corn; [21]) was 0, the “Plant response rating, Crabgrass, Large” value (large crabgrass [7]; [20]) was 0 and the “Crabgrass, Large plant response rating” value (large crabgrass [7]; 125 g ai/ha) was 0. The “Crabgrass, Large plant response rating” value (large crabgrass [7]; 500 g ai/ha) was 0, the “Plant response rating, Crabgrass, Large” value (large crabgrass [7]; [21]) was 0 and the “Plant response rating, Foxtail, Giant” value (giant foxtail [8]; [20]) was 0. For the same compound, the “Foxtail, Giant plant response rating” value (giant foxtail [8]; 125 g ai/ha) was 0, the “Foxtail, Giant plant response rating” value (giant foxtail [8]; 500 g ai/ha) was 0 and the “Plant response rating, Foxtail, Giant” value (giant foxtail [8]; [21]) was 0. For the same compound, the “Plant response rating, Lambsquarters” value (lambsquarters; [20]) was 0, the “Lambsquarters plant response rating” value (lambsquarters; 125 g ai/ha) was 0 and the “Lambsquarters plant response rating” value (lambsquarters; 500 g ai/ha) was 0. For the same compound, the “Plant response rating, Lambsquarters” value (lambsquarters; [21]) was 0, the “Plant response rating, Morningglory” value (morningglory [9]; [20]) was 0 and the “Morningglory plant response rating” value (morningglory [9]; 125 g ai/ha) was 0. For the same compound, the “Morningglory plant response rating” value (morningglory [9]; 500 g ai/ha) was 0, the “Plant response rating, Morningglory” value (morningglory [9]; [21]) was 0 and the “Plant response rating, Pigweed” value (pigweed; [20]) was 0. For the same compound, the “Pigweed plant response rating” value (pigweed; 125 g ai/ha) was 0, the “Pigweed plant response rating” value (pigweed; 500 g ai/ha) was 0 and the “Plant response rating, Pigweed” value (pigweed; [21]) was 0. The “Plant response rating, Rice” value (rice [10]; [20]) was 0, the “Plant response rating, Rice” value (rice [10]; [21]) was 0 and the “Plant response rating, Velvetleaf” value (velvetleaf [11]; [20]) was 0. The “Velvetleaf plant response rating” value (velvetleaf [11]; 125 g ai/ha) was 0, the “Velvetleaf plant response rating” value (velvetleaf [11]; 500 g ai/ha) was 0 and the “Plant response rating, Velvetleaf” value (velvetleaf [11]; [21]) was 0. The “Blackgrass plant response rating” value (blackgrass; 125 g ai/ha) was 0, the “Blackgrass plant response rating” value (blackgrass; 500 g ai/ha) was 0 and the “Wheat plant response rating” value (wheat) was 0. For the same compound, the “Oat, Wild plant response rating” value (wild oat; 125 g ai/ha) was 0, the “Oat, Wild plant response rating” value (wild oat; 500 g ai/ha) was 0 and the “Rice plant response rating” value (rice [12]) was 0. The “Sedge, Umbrella plant response rating” value [13] was 30, the “Ducksalad plant response rating” value (ducksalad) was 0 and the “Barnyardgrass plant response rating” value (barnyardgrass [14]) was 0.
